From US20100069504A1, “AMINOBENZOCYCLOHEPTENE DERIVATIVES, METHODS FOR PREPARING THE SAME AND USES THEREOF IN THERAPY” (UNIVERSITE DE HAUTE ALSACE, priority 2006, published 2010)
Counter-ions that a name gives are not always drawn. Like-named read-outs stand apart in the source and are kept apart here.

How the values were obtained:
[1] = biological target: T1, AP-N from porcine livers (Sus scrofa, UniProt P15145); assay: Stability in aqueous solution, followed by AP-N inhibition over at least 10 hours; format: biochemical; conditions: read-out: inhibition of AP-N throughout the test
T1 construct: The AP-N is purified in a soluble form according to the method described by Wacker; purchased Sigma Chemical Corporation; host or cells: porcine livers (tissue)
T1 sequence (P15145 33-963 limits assumed): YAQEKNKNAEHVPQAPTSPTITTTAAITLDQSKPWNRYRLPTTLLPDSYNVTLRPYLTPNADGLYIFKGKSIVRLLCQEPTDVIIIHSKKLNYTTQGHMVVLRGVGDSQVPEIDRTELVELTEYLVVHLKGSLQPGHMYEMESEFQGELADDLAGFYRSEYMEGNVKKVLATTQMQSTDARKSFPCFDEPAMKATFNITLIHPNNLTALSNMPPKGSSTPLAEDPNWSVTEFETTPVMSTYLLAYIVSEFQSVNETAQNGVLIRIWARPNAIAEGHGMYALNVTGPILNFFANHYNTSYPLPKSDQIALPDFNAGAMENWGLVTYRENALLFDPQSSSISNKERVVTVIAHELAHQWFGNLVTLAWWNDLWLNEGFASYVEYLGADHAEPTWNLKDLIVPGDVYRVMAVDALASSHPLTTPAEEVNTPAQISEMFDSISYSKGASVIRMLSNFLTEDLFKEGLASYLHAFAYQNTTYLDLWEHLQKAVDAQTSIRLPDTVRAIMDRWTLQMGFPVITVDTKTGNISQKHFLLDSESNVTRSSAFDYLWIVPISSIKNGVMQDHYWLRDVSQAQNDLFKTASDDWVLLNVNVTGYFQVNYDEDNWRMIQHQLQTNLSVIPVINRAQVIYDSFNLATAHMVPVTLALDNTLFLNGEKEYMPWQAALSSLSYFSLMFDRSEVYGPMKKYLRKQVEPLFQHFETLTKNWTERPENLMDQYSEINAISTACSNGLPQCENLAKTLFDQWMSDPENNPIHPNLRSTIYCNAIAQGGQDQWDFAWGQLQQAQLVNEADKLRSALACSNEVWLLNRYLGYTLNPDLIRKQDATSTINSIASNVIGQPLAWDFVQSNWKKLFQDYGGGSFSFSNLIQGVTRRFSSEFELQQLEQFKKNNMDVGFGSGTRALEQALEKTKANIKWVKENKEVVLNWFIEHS
Experimental: The enzymatic tests are carried out at 25° C. in 20 mM Tris-HCl, pH=7.5 with 0.2 mM L-leucine para-nitroanilide as a substrate, in a total reaction volume of 1 mL. […] The reaction is started up by adding 3 milliunits of AP-N from porcine livers.
Under these experimental conditions, the linear kinetics is monitored for at least 10 hours.

[2] = biological target: T2, AP-N (EC3.4.11.2) (Sus scrofa, UniProt P15145); assay: AP-N inhibitory activity, inhibition constant Ki by spectrophotometry (Dixon method); format: biochemical, porcine; conditions: L-leucine para-nitroanilide substrate, 30° C., pH=7.5; hydrochloride, racemic mixture
T2 construct: The AP-N is purified in a soluble form according to the method described by Wacker; purchased Sigma Chemical Corporation; host or cells: porcine livers (tissue)
T2 sequence (P15145 33-963 limits assumed): T1 sequence (P15145 33-963 limits assumed)
From the text: (§1) LTA4H has an aminopeptidase type activity similar to AP-N and a very close substrate specificity. It is important for the AP-N inhibitory molecules neither to inhibit LTA4H nor aminopeptidases that contain a co-catalytic unit like LAPc.
(§2) The LAPc enzymes from bovine livers and AP-N from porcine livers are marketed by Sigma Chemical Corporation. The AP-N is purified in a soluble form according to the method described by Wacker, H., Lecky, P., Fischer E. H., Stein, E. A. Hely. Chim.
(§3) The kinetic studies are carried out at 30° C. and the reactions are started up by adding the enzymes in 1 mL of test medium: LAPc, 5 units in 10 mM Tris-HCl, 0.1 mM ZnCl2, 5 mM MnCl2, 1 M KCl, pH=8.0; AP-N, 25 mUnits in 10 mM Tris-HCl, pH=7.5 and LTA4H, 5 μg in 10 mM Tris-HCl, 0.1 mM KCl, pH=7.5.
(§4) All the inhibitory molecules are assessed as an hydrochloride and in racemic mixture.

[3] = biological target: T3, cytosolic leucine aminopeptidase (LAPc) (EC3.4.11.1) (Bos taurus, UniProt P00727); assay: LAPc inhibition, Ki by spectrophotometry (Dixon method); format: biochemical, bovine
T3 construct: The LAPc enzymes from bovine livers; purchased Sigma Chemical Corporation; host or cells: bovine livers (tissue)
T3 sequence (P00727 1-519): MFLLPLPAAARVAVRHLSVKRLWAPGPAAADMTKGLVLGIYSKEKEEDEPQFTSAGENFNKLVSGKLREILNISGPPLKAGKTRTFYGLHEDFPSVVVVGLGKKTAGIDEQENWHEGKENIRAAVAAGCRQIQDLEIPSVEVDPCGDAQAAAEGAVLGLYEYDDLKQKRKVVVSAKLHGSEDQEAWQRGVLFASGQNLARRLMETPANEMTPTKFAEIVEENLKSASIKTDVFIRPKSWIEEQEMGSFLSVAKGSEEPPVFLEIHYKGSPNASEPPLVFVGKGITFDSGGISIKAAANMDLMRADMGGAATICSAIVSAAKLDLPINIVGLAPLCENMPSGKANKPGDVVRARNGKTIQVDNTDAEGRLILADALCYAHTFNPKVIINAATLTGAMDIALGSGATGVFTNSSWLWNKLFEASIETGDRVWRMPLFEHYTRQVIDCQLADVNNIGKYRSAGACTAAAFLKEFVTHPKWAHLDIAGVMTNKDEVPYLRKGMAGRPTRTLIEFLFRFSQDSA
From the text: as §1, §2, §3, §4

[4] = biological target: T4, human recombinant leukotriene A4 hydrolase (LTA4H) (EC3.3.2.6) (Homo sapiens, UniProt P09960); assay: LTA4H aminopeptidase inhibition, Ki by spectrophotometry (Dixon method); format: biochemical; conditions: alanine para-nitroanilide substrate, 30° C., pH=7.5; hydrochloride, racemic mixture
T4 sequence (P09960 1-611): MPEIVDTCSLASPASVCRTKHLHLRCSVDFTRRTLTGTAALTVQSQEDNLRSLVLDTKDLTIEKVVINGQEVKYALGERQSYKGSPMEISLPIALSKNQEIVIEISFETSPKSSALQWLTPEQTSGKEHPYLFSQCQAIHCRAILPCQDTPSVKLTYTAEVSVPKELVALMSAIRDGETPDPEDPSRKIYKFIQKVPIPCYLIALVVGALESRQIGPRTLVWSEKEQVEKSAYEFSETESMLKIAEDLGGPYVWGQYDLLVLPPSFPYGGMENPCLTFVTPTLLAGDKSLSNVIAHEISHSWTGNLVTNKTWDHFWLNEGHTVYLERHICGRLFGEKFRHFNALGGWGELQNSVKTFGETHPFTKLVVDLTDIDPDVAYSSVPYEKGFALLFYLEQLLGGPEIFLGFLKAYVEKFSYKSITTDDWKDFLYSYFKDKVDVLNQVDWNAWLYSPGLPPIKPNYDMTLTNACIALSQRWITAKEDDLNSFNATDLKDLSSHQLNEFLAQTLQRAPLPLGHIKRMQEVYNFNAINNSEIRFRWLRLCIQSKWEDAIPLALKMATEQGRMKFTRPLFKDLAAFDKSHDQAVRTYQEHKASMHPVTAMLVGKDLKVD
Experimental: as §1, §3, §4

[5] = L-leucine para-nitroanilide substrate, 30° C., pH=8.0, hydrochloride, racemic mixture, read-out: Ki (M) LAPc (EC3.4.11.1)

Compound	melting point [°C]	inhibition at 200 µM [1] [%]	Ki [2] [nM]	Ki [3, 5] [M]	Ki [4] [mM]	Ki [3] [M]
Cl.NC1CCc2ccccc2CC1=NO (stereo not drawn)	270 to 280					
Cl.NC1CCc2ccccc2CC1=O (racemic) [EX 2, 7-amino-5,7,8,9-tetrahydro-benzocyclohepten-6-one hydrochloride]		50	1000	> 0.001	> 1	
NC1CCc2ccccc2C(F)C1=O (racemic) [EX 3, 7-amino-5-fluoro-5,7,8,9-tetrahydro-benzocyclohepten-6-one hydrochloride]			300	> 0.001	> 1	
Cl.NC1CCc2ccccc2C(CCCc2ccccc2)C1=O (racemic) [EX 6, 5-phenylpropyl-7-amino-5,7,8,9-tetrahydro-benzocyclohepten-6-one hydrochloride]	156 to 158		12000	> 0.001	> 1	
NC1CCc2cccc(-c3ccccc3)c2CC1=O (racemic) [EX 7, 7-amino-4-phenyl-5,7,8,9-tetrahydro-benzocyclohepten-6-one hydrochloride]				2e-05	> 1	
NC1CCc2ccccc2C(SCc2ccccc2)C1=O (racemic) [EX 8, 5-benzylsulphanyl-7-amino-5,7,8,9-tetrahydro-benzocyclohepten-6-one hydrochloride]			80	> 0.001	> 1	
NC1CCc2c(Br)cccc2CC1=O (racemic) [EX 9, 7-amino-1-bromo-5,7,8,9-tetrahydro-benzocyclohepten-6-one hydrochloride]				> 0.001	> 1	
NC1Cc2ccccc2CC1=O (racemic) [EX 10, 2-amino-3-tetralone, reference compound]					> 1	0.00012
